Test system: immunocompetent FVB mice
Assay: Tolerability study in immunocompetent mice
Assay type: in vivo
From the text: Five- to six-week-old immunocompetent, female FVB mice were purchased from Charles River Laboratories (Sulzfeld, Germany). After an acclimatization period of at least 7 days, the mice (n = 5 per group) were intravenously injected with 30 kBq [^225Ac]Ac-SibuDAB or 30 kBq [^225Ac]Ac-PSMA-617 and additional mice (n = 7 per group) remained untreated as controls. Mice were monitored by measuring their body mass and potential signs of pain or unease three times a week (Supplementary Material: Section S7). The mice were euthanized on Day 10, Day 28 or on Day 56, respectively, and variable parameters were assessed from blood and tissue samples.
Hematological analysis was performed using blood samples taken by cardiac puncture immediately after euthanasia. Blood and bone marrow smears were prepared and stained using the Pappenheim protocol. The assessment was carried out by a board-certified veterinary anatomic pathologist (AnaPath Services GmbH, Liestal, Switzerland). Blood plasma parameters were determined in plasma after centrifugation of blood samples obtained shortly before euthanasia (Supplementary Material: Section S7).
Tissue sections of formalin-fixed paraffin-embedded (FFPE) spleen, salivary glands and kidneys were prepared and stained with hematoxylin and eosin (H&E) by AnaPath Services GmbH (Liestal, Switzerland). The tissues were analyzed by a board certified veterinary pathologist using a pre-defined scoring system (Supplementary Material: Section S7). […]
The percentage of radioligand bound to mouse or human plasma (A bound) was plotted against the molar ratios of MSA/HSA to radioligand and fitted with a nonlinear regression curve (specific binding with Hill slope, Bmax set to 100%) using GraphPad Prism software (version 8) to obtain the half maximum binding (B 50).
Results: The results are reported in the main article.
Purpose: A tolerability study with normal, immunocompetent FVB mice was con-ducted in order to assess potential side effects to the bone marrow, spleen, salivary glands and kidneys after the application of high activities of the 225Ac-labeled PSMA radioligands.
Methods: Monitoring Body Mass and Signs of Unease: Mice were monitored by meas-uring their body mass (BM) three times a week. The body masses were expressed as the relative body mass, defined as [BMx/BM0], where BMx is the body mass in grams on a given Day x and BM0 is the body mass in grams on Day 0. Endpoint criteria, defined as (i) >15% loss in body mass, (ii) signs of unease and pain or a combination thereof based on a scoring system, were not reached in this stu dy.
Hematology: Blood cell counts were determined in blood samples taken by cardiac puncture immediately after euthanasia and collected in EDTA tubes (Microvette® 100 K3 EDTA, Sarstedt, Germany). Leukocyte, lymphocyte, erythrocyte and thrombocyte counts as well as hemoglobin and hematocrit values were determined using a hematology ana-lyzer (VetScan HM5, Abaxis, United States). Blood smears were prepared on glass slides with cardiac blood. The bone marrow was collected from the femur, diluted in FCS/H2O (2:1 v/v) and smeared onto microscopy slides using a paintbrush. The slides were stained with a May Grünwald solution and subsequently with diluted Giemsa solution using the Pappenheim method and covered with coverslips using mounting medium (Pertex).
The assessment of potential morphological ch anges of the blood cells and counting of the subgroups of leukocytes was performed by a board-certified veterinary pathologist (Ana-Path Services GmbH, Liestal, Switzerland).
Histopathological Analysis: Spleen, salivary glands and kidneys were formalin-fixed and paraffin-embedded. Tissue sections were stained with hematoxylin & eosin (H&E) […]
Blood Plasma Parameters: Blood plasma parameters were determined in plasma ob-tained from centrifuged retrobulbar blood samples collected in lithium-heparin tubes (Mi-crovette® 200 LH, SARSTEDT). The concentrations of blood urea nitrogen (BUN), alkaline […]

## O=C([O-])CN1CCN(CC(=O)[O-])CCN(CC(=O)NCC2CCC(C(=O)NC(Cc3ccc4ccccc4c3)C(=O)NCCCCC(NC(=O)NC(CCC(=O)O)C(=O)O)C(=O)O)CC2)CCN(CC(=O)[O-])CC1.[225Ac+3] (stereo not shown) [[^225Ac]Ac-PSMA-617]
Day 28, 30 kBq
  Kidneys: Tubular basophilia, score average: 1.0
  Salivary glands: Ductal hyperplasia with inflammatory cells, incidence: 0
  Salivary glands: Ductal hyperplasia with inflammatory cells, score average: 0.0
  Salivary glands: Hypertrophy acinar, sublingual, incidence: 0
  Salivary glands: Hypertrophy acinar, sublingual, score average: 0.0
  Salivary glands: Mononuclear cell foci, incidence: 1
  Salivary glands: Mononuclear cell foci, score average: 1.0
  Salivary glands: Necrosis, multifocal, serous acinar cells, incidence: all five
  Salivary glands: Necrosis, multifocal, serous acinar cells, score average: 1.8
  Salivary glands: Vacuolation, incidence: 0
  Salivary glands: Vacuolation, score average: 0.0
  Spleen: Extramedullary hematopoiesis, incidence: 5
  Spleen: Extramedullary hematopoiesis, score average: 1.8
  Spleen: Hyperplasia, lymphoid, incidence: 5
  Spleen: Hyperplasia, lymphoid, score average: 1.0
  Spleen: Pigment, incidence: 5
  Spleen: Pigment, score average: 1.8
Day 28, 30 kBq, listed as [225Ac]Ac-PSMA-617
  Salivary glands: Necrosis, multifocal, serous acinar cells, incidence: 5
Day 28, mouse M1
  Bone marrow % E: 50%
  Bone marrow % M: 50%
Day 28, mouse M2
  Bone marrow % E: 40%
  Bone marrow % M: 60%
Day 28, mouse M3
  Bone marrow % E: 40%
  Bone marrow % M: 60%
Day 28, mouse M4
  Bone marrow % E: 50%
  Bone marrow % M: 50%
Day 28, mouse M5
  Bone marrow % E: 40%
  Bone marrow % M: 60%
Day 56, 30 kBq
  Kidneys: Hyperplasia/hypertrophy, tubular, incidence: 1
  Kidneys: Hyperplasia/hypertrophy, tubular, score average: 1.0
  Kidneys: Hypertrophy/hyperplasia, tubular with ectasia, incidence: 0
  Kidneys: Hypertrophy/hyperplasia, tubular with ectasia, score average: 0.0
  Kidneys: Inflammatory cells, interstitium, incidence: 0
  Kidneys: Inflammatory cells, interstitium, score average: 0.0
  Kidneys: Inflammatory cells, pelvis, incidence: 0
  Kidneys: Inflammatory cells, pelvis, score average: 0.0
  Kidneys: Mineralization, papilla, incidence: 0
  Kidneys: Mineralization, papilla, score average: 0.0
  Kidneys: Tubular basophilia, incidence: 1
  Kidneys: Tubular basophilia, score average: 1.0
  Salivary glands: Ductal hyperplasia with inflammatory cells, incidence: 0
  Salivary glands: Ductal hyperplasia with inflammatory cells, score average: 0.0
  Salivary glands: Hypertrophy acinar, sublingual, incidence: 0
  Salivary glands: Hypertrophy acinar, sublingual, score average: 0.0
  Salivary glands: Mononuclear cell foci, incidence: 2
  Salivary glands: Mononuclear cell foci, score average: 1.0
  Salivary glands: Necrosis, multifocal, serous acinar cells, incidence: 0
  Salivary glands: Necrosis, multifocal, serous acinar cells, score average: 0.0
  Salivary glands: Vacuolation, incidence: 0
  Salivary glands: Vacuolation, score average: 0.0
  Spleen: Extramedullary hematopoiesis, incidence: 5
  Spleen: Extramedullary hematopoiesis, score average: 1.4
  Spleen: Hyperplasia, lymphoid, incidence: 0
  Spleen: Hyperplasia, lymphoid, score average: 0.0
  Spleen: Pigment, incidence: 5
  Spleen: Pigment, score average: 2.0
Day 56, mouse M1
  Bone marrow % E: 30%
  Bone marrow % M: 70%
Day 56, mouse M2
  Bone marrow % E: 40%
  Bone marrow % M: 60%
Day 56, mouse M3
  Bone marrow % E: 30%
  Bone marrow % M: 70%
Day 56, mouse M4
  Bone marrow % E: 40%
  Bone marrow % M: 60%

From article PMC9688344, “[^225Ac]Ac-SibuDAB for Targeted Alpha Therapy of Prostate Cancer: Preclinical Evaluation and Comparison with [^225Ac]Ac-PSMA-617” (Cancers, 2022)
